Measured values published in patent publication US11007237B2, “Agent for suppressing carbohydrate breakdown and absorption” (KOHAKU BIO TECHNOLOGY CO., LTD., priority 2017, dated 2021).
Values belong to the compound of their own block, whether it stands above or below them.

Columns and labels:
sucrase = target: T1, sucrase (Homo sapiens, UniProt P14410); experiment: Suppression test for sucrase activity in Caco-2 cells; type: cell-based
T1 construct: Cells were collected with a lysis buffer (0.1 M phosphate buffer (pH6.8), 0.5% TritonX-100); endogenous in cells; host or cells: Caco-2 cells (Triton X-100 lysate supernatant, crude enzyme)
Description: (§1) The extract obtained can be examined for action to suppress α-glucosidase activity, for example, by the following method. The extract is added to human colon cancer-derived cells (hereinafter referred to as Caco-2 cells) and the cells are cultured. The cultured cells are collected. With a crude enzyme solution thereof, sucrose or maltose serving as substrate is allowed to react. The amount of glucose generated is quantified by an enzyme method using glucose oxidase. An action to inhibit glucose uptake can be examined by the following method. To Caco-2 cells differentiated into the intestinal epithelial-like, glucose and the extract were simultaneously added. The amount of glucose taken in the cells or permeated through the cells is quantified by an enzyme method using glucose oxidase.
(§2) The test herein was carried out with reference to the method of OGAWA et al. (N. Ogawa et al., the Journal of Nutrition, 130: 507-513, 2000).
To Dulbecco's modified eagle medium (DMEM)(manufactured by Thermo Fisher Scientific K.K.), 10% fetal bovine serum (hereinafter referred to as FBS)(manufactured by Thermo Fisher Scientific K.K.), a 1% antibacterial agent (Penicillin-Streptomycin-L-Glutamine) (manufactured by FUJIFILM Wako Pure Chemical Corporation) and a 1% non-essential amino acid mixture (MEM Non-Essential Amino Acids) (manufactured by Thermo Fisher Scientific K.K.) were added to prepare a culture solution (hereinafter referred to as DMEM culture medium). In the DMEM culture solution (medium), Caco-2 cells were suspended. The suspension was added in 24-well plates (manufactured by TPP) in a ratio of 1.0×10^4 cells/cm^2 to seed the cells. The cells were cultured under 95% air/5% carbon dioxide gas at 37° C. for 8 to 10 days until the cultured cells reached confluency while exchanging the medium at intervals of 2 to 3 days. After the culture supernatant was removed by suction, the amber extract (50% ethanol extract) obtained in Production Example 1 was dissolved in dimethyl sulfoxide (hereinafter referred to as DMSO) so as to obtain a final concentration of 100 and 200 μg/mL. The DMSO solutions were mixed with DMEM culture medium (DMSO final concentration: 0.25%) and each added in an amount of 500 μL. DMSO was added to DMEM culture medium so as to obtain a DMSO final concentration of 0.25% and treated. This was used as a control. […] This was used as a positive control. In addition, the suppression test for sucrase/maltase activity was carried out by using succinic acid in the corresponding amount to that contained in amber extract. More specifically, the content of succinic acid in the amber extract obtained in Production Example 1 was calculated by analysis/preparative high performance liquid chromatographic apparatus and a Fourier transform infrared spectrophotometer. […]
(§3) Cells were collected with a lysis buffer (0.1 M phosphate buffer (pH6.8), 0.5% TritonX-100), allowed to stand still on ice for 20 minutes and centrifuged (10,000×g) at 4° C. for 30 minutes, and then, the supernatant was collected. […] Thereafter, the amount of the glucose generated was quantified in accordance with an enzyme method using glucose CII test Wako (manufactured by FUJIFILM Wako Pure Chemical Corporation). The sucrase activity and maltase activity were calculated, respectively, based on the production amount of glucose.

Caco-2 cells = experiment: Suppression test for glucose uptake by the intestinal epithelial-like cells (Caco-2 cells), Transwell glucose permeation; type: cell-based, human; conditions: for Glucose permeability (%) (n = 3): apical side, 2 hours, control = 100
Description: as §1
The test herein was carried out in accordance with the method of Konishi et al. (Konishi et al., Biosci. Biotechnol. Biochem., 67(4), 856-862, 2003). In DMEM culture medium, Caco-2 cells were suspended. The suspension was added in Transwell-COL of 12 mm diameter and 0.4 μm in pore size (manufactured by Corning Incorporated) (hereinafter referred to as Transwell) in a ratio of 1.0×10^5 cells/cm^2 to seed the cells. The cells were cultured under 95% air-5% carbon dioxide gas at 37° C. for 3 weeks while exchanging the medium at intervals of 2 to 3 days.
After an intercellular electrical resistance (TER value) was confirmed to be 350 Ω·cm^2 or more by Millicell ERS-2 resistance measurement system (manufactured by Merck Millipore), the amber extract obtained in Production Example 1 was dissolved in DMSO on the apical side so as to obtain a final concentration of 0.2, 1 and 2 mg/mL, and mixed with a solution obtained by dissolving D(+)-glucose in PBS (+) in a concentration of 0.5% (hereinafter referred to as the 0.5% glucose solution) (DMSO final concentration: 1%). The resultant mixed solutions each were added in an amount of 500 μL. DMSO was added to a 0.5% glucose solution so as to obtain a DMSO final concentration of 1% and treated. This was used as a control. Phlorizin n-hydrate derived from an apple (hereinafter referred to as phlorizin) was dissolved in DMSO so as to obtain a final concentration of 1 mg/mL and mixed with the 0.5% glucose solution. The resultant DMSO solution (DMSO final concentration: 1%) was treated and used as a positive control. Further, succinic acid was subjected to a glucose permeation suppression test in the amount corresponding to that contained in the amber extract. More specifically, the content of succinic acid in the amber extract obtained in Production Example 1 was calculated by use of analysis/preparative high performance liquid chromatographic apparatus and Fourier transform infrared spectrophotometer. As a result, the content rate of succinic acid was confirmed to be 2% or less. Then, succinic acid was dissolved in DMSO so as to obtain a final concentration of 0.02, 0.05 and 0.1 mg/mL and mixed with PBS (+)(DMSO final concentration: 1%) and treated. At each basolateral side, 500 μL of PBS (+) was added. These transwells were subjected to culture carried out under 95% air −5% carbon dioxide gas at 37° C. for 2 hours. Thereafter the amount of glucose permeated on the basolateral side was quantified by use of glucose CII test Wako. The glucose permeability of the control sample was regarded as 100 and the relative changes for the samples containing a test substance were calculated. After the test, the TER value was confirmed to be 350 Ω·cm^2 or more.

maltase = experiment: Suppression test for maltase activity in Caco-2 cells; type: cell-based, human; conditions: for Maltase activity (%) (n = 3): Caco-2 cells treated 7 days, control = 100
Description: as §1, §2
To Dulbecco's modified eagle medium (DMEM)(manufactured by Thermo Fisher Scientific K.K.), 10% fetal bovine serum (hereinafter referred to as FBS)(manufactured by Thermo Fisher Scientific K.K.), a 1% antibacterial agent (Penicillin-Streptomycin-L-Glutamine) (manufactured by FUJIFILM Wako Pure Chemical Corporation) and a 1% non-essential amino acid mixture (MEM Non-Essential Amino Acids) (manufactured by Thermo Fisher Scientific K.K.) were added to prepare a culture solution (hereinafter referred to as DMEM culture medium). In the DMEM culture solution (medium), Caco-2 cells were suspended. The suspension was added in 24-well plates (manufactured by TPP) in a ratio of 1.0×10^4 cells/cm^2 to seed the cells. The cells were cultured under 95% air/5% carbon dioxide gas at 37° C. for 8 to 10 days until the cultured cells reached confluency while exchanging the medium at intervals of 2 to 3 days. […] More specifically, the content of succinic acid in the amber extract obtained in Production Example 1 was calculated by analysis/preparative high performance liquid chromatographic apparatus and a Fourier transform infrared spectrophotometer. […]
as §3

[1] = Caco-2 cells, succinic acid in the amount corresponding to that contained in the amber extract

T1 sequence (P14410 whole entry): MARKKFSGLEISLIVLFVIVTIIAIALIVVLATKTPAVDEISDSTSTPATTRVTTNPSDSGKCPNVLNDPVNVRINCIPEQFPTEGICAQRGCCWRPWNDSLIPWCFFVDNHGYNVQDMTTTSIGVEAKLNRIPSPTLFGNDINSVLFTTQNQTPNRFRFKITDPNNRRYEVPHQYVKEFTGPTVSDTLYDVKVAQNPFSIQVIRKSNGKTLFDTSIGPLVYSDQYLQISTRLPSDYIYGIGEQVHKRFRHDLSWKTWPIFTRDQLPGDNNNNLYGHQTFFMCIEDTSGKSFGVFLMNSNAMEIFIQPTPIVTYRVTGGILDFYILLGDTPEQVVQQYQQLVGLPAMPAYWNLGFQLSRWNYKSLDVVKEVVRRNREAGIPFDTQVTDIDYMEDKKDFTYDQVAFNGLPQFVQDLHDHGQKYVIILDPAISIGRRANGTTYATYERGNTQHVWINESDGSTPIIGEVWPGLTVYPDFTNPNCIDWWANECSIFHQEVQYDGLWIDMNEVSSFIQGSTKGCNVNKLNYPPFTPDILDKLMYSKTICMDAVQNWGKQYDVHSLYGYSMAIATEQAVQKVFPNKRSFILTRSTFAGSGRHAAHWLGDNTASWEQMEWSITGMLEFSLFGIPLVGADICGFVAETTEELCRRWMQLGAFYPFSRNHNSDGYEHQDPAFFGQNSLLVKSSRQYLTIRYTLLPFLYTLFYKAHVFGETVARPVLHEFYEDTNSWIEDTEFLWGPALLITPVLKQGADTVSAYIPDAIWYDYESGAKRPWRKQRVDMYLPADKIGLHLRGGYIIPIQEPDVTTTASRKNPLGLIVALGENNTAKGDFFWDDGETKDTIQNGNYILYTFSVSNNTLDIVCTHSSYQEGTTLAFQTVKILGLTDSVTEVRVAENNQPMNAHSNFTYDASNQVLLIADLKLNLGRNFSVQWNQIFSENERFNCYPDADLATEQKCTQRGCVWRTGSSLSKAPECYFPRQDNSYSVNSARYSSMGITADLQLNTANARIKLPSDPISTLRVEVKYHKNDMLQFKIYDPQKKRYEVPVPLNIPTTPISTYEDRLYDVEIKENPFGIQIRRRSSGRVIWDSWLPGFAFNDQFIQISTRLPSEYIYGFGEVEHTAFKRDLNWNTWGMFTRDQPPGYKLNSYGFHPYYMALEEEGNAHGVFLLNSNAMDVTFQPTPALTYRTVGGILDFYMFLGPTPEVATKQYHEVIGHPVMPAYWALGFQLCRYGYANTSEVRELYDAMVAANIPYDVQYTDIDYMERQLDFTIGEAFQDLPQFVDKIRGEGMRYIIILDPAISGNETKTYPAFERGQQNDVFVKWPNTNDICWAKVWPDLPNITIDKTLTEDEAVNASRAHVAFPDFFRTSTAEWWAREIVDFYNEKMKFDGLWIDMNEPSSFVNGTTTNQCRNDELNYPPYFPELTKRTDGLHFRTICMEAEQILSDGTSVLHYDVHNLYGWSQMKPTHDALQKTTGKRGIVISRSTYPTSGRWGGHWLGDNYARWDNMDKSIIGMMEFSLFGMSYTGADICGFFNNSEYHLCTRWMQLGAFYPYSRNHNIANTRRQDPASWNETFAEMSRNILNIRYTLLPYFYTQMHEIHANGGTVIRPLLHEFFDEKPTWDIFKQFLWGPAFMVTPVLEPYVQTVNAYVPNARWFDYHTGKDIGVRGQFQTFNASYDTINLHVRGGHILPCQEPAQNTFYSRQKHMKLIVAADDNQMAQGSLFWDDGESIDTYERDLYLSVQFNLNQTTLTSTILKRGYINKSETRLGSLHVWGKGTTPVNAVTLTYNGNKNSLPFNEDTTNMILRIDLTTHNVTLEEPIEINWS

activity at 100 µg/mL (sucrase; 100 μg/mL, Caco-2 cells treated 7 days, control = 100, read-out: Sucrase activity (%) (n = 3)): 90.2 ± 4.1%
Structure (SMILES): C[C@H]1O[C@H](O[C@H]2[C@H](O)[C@@H](O)[C@@H](O[C@H]3[C@H](O)[C@@H](O)C(O)O[C@@H]3CO)O[C@@H]2CO)[C@H](O)[C@@H](O)[C@@H]1N[C@H]1C=C(CO)[C@@H](O)[C@H](O)[C@H]1O (some centres unmarked) [ACA, Acarbose]

Structure (SMILES): O=C(CCc1ccc(O)cc1)c1c(O)cc(O)cc1O[C@@H]1O[C@H](CO)[C@@H](O)[C@H](O)[C@H]1O [Phlorizin, Phlorizin n-hydrate]
Glucose permeability (%) (n = 3) (Caco-2 cells; 1 mg/mL, 0.5% glucose): 27.4 ± 1.8 %

activity at 2 µg/mL (sucrase; 2 μg/mL, Caco-2 cells treated 7 days, control = 100, read-out: Sucrase activity (%) (n = 3)): 102 ± 3%
activity at 5 µg/mL (sucrase; 5 μg/mL, Caco-2 cells treated 7 days, control = 100, read-out: Sucrase activity (%) (n = 3)): 95.4 ± 1.4%
activity at 25 µg/mL (sucrase; 25 μg/mL, Caco-2 cells treated 7 days, control = 100, read-out: Sucrase activity (%) (n = 3)): 99.2 ± 2%
Action to suppress sucrase activity in Caco-2 cells (in words) (sucrase; [1]): not confirmed
Action to suppress maltase activity in Caco-2 cells (in words) (maltase; [1]): not confirmed
Suppression of glucose uptake / permeation in Caco-2 cells (in words) (Caco-2 cells; [1]): not confirmed
Structure (SMILES): O=C(O)CCC(=O)O [Succinic acid, succinic acid]
Maltase activity (%) (n = 3) (maltase; 2 μg/mL): 108.3 ± 1.5%
Maltase activity (%) (n = 3) (maltase; 5 μg/mL): 99.2 ± 1.3%
Maltase activity (%) (n = 3) (maltase; 25 μg/mL): 100.9 ± 2.1%
Glucose permeability (%) (n = 3) (Caco-2 cells; 0.02 mg/mL): 94.6 ± 1.6%
Glucose permeability (%) (n = 3) (Caco-2 cells; 0.05 mg/mL): 92.8 ± 3.2%
Glucose permeability (%) (n = 3) (Caco-2 cells; 0.1 mg/mL): 95.4 ± 2.5%
